Results on two compounds are retold here after ChEMBL document CHEMBL1127147, “Rational design for cytosolic delivery of nucleoside monphosphates : SATE and DTE as enzyme-labile transient phosphate protecting groups” (Bioorg Med Chem Lett, 1993).

The test system of assay [1] is CEM-SS. The assay can be described thus: Tested for cytotoxicity against human CEM-SS cell line. Format: functional.
Assay [2] deals with CEM-TK(-). As to the kind of experiment: Tested for antiviral activity against HIV-1 infected human CEM-TK- cell line (deficient in thymidine kinase activity). The assay is classed as functional, cell-based.
Assay [3] relates to CEM-SS. The assay can be described thus: Tested for antiviral activity against HIV-1 infected human CEM-SS cell line. The assay is classed as functional, cell-based.
Assay [4] deals with CEM-TK(-). The assay can be described thus: Tested for cytotoxicity against human CEM-TK- cell line (deficient in thymidine kinase activity). The assay is classed as functional.
Assay [5] relates to CEM-SS. As to the kind of experiment: Tested for cytotoxicity against human CEM-SS cell line; Percent reduction 40. Format: functional.

Each structure is given as a SMILES string. Where only a bound is given, the exact number is not on record here.

One may read the CC50 as the concentration at which the toxic effect on the cells reaches its halfway point. Low values mean greater toxicity to the cells, high ones lower toxicity to the cells. For orientation: EC50 means the concentration giving half of the maximal effect. Higher therefore signals a less potent agent. Turning to `CC(=O)SCCOP(=O)(OCCSC(C)=O)OCC1CCC(n2ccc(=O)[nH]c2=O)O1` (stereo not drawn), the 50% cytotoxic concentration (CC50) with CEM-SS [1] is 900 µM; with CEM-TK(-) [4] it was 70 µM. Further, the EC50 stood at 4 µM in the assay with CEM-TK(-) [2] and 5 µM in the assay on CEM-SS [3].

Regarding `O=c1ccn(C2CCC(COP(=O)(OCCSSCCO)OCCSSCCO)O2)c(=O)[nH]1` (stereo not drawn), the values for the cytotoxic concentration (CC50) in the assay on CEM-SS [5] and in the assay with CEM-TK(-) [4] were over 100 µM and 80 µM, respectively. Also, the EC50 in the assay on CEM-TK(-) [2] was determined as 8 µM; in the assay with CEM-SS [3], 60 µM.
